Blank lines part the entries; values can stand above or below the compound they belong to.
Tests used:
AQP4 = target: T1, AQP4 (Homo sapiens, UniProt P55087); test: Oocyte swelling assay: water permeability (Pf) of AQP4-expressing oocytes by videomicroscopy, block or % stimulation; assay type: cell-based
T1 construct: expressed in transfected cells; host or cells: Xenopus oocytes
Text: (§1) A method for screening compounds for their ability to modulate aquaporin activity based on a water permeability assay in Xenopus oocytes expressing aquaporins which is used to identify, assess, and characterize compounds that either block or stimulate the aquaporin channels including AQP1, AQP4 and AQP9 channels.
(§2) Selection rationale and methodology. The ability of compounds, analogs and/or agents to block an aquaporin channel was quantified by videomicroscopic analyses of cross-sectional area of AQP-expressing oocytes as a function of time in a defined osmotic gradient, allowing the calculation of the water permeability factor (Pf), statistical evaluation of significant differences in the rate of water entry, and definition of dose response curves with IC50 values (concentration required for half-maximal block).
(§3) This compound evaluation method has been utilized with AQP1,-4,-5, and -9 channels. Observations of channel stimulation were made using the same assay method, however, the results were reported as % stimulation over control at a given concentration. […] TEA is known as a blocker of K^+ channel subtypes and nicotinic acetylcholine receptors. TEA sensitivity of AQP1 was removed by site-directed mutagenesis of tyrosine 186 to phenylalanine (Y186F) in the outer vestibule of the water pore, and confirmed that the inhibitory action of TEA is not due to nonspecific effects on endogenous channels (Brooks et al., 2000).

AQP1 [1] = target: T2, AQP1 (Homo sapiens, UniProt P29972); test: Oocyte swelling assay: water permeability (Pf) of AQP1-expressing oocytes, block or % stimulation; assay type: cell-based; set-up: expressed in transfected cells; host or cells: Xenopus oocytes; settings: for AQP-1 effect (in words): given extracellularly
T2 sequence (P29972 1-269): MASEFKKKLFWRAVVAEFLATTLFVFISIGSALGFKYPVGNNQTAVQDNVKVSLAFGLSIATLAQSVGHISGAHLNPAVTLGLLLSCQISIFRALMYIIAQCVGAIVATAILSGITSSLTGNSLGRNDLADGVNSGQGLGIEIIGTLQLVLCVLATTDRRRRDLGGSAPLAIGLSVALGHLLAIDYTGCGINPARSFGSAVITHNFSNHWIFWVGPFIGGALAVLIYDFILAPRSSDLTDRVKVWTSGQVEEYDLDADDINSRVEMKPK
Text: as §1, §2, §3

AQP4-expressing oocytes = target: T3, AQP4-expressing oocytes (Homo sapiens, UniProt P55087); test: Simple screen: time to oocyte bursting in hypotonic saline; assay type: cell-based; settings: AQP4-expressing oocytes; concentration not given
T3 construct: expressed in transfected cells; host or cells: Xenopus oocytes
Procedure: The composition of the library for initial AQP channel screening included various channel, transporter and receptor blocking compounds based on intuition and from clues regarding clinical side effects that involved water transporting tissues. In a simple screen (FIG. 1), control and AQP4-expressing oocytes were preincubated in isotonic saline (100 mM NaCl; 5 mM MgCl2; 5 mM HEPES, pH 7.3; ˜200 mOsm) containing the test compound for 10-15 min before each experiment; then the time to oocyte bursting (physical explosion) after transfer to 100 mOsm saline was monitored visually. […] Block was evident in the increased time required for bursting in hypotonic saline.

[2] = tested on: astrocytes expressing AQP4; settings: cited from earlier work
AQP1 [3] = target: T2, AQP1; settings: AQP1 expressed in oocytes (Brooks et al., 2000); cited from earlier work
[4] = tested on: Na—K—Cl cotransporter (NKCC1); settings: perfused kidney ascending loops of Henle; read-out: IC50 against Na—K—Cl cotransporter; cited from earlier work
[5] = ↓ block, ↑ activation, ═ no effect, symbols not defined in the table
[6] = ↓ block, ↑ stimulation, ═ no effect, symbols not defined in the table

T1 sequence (P55087 whole entry, species assumed): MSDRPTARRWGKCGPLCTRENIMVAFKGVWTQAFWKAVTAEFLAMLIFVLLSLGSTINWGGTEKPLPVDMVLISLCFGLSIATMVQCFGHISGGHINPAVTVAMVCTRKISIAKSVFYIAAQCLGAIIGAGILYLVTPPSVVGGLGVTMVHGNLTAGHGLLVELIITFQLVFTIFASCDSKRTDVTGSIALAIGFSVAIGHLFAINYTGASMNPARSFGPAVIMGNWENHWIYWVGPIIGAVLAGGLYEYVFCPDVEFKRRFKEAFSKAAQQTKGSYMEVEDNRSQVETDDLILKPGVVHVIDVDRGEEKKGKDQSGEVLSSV
T3 sequence (P55087 whole entry, species assumed): as above

AQP-4 effect: % activation (AQP4; 10 μM given extracellularly): 60% | AQP-4 effect (arrow symbol) (AQP4; [5]): ↑
SMILES: CCCCNc1cc(C(=O)NCCN2CCS(=O)(=O)CC2)cc(S(N)(=O)=O)c1Oc1ccccc1 [AQP-0009]

SMILES: CCCCNc1cc(C(=O)Nc2ccncc2)cc(S(N)(=O)=O)c1Oc1ccccc1 [AQP-0013]
AQP-4 effect: % block (AQP4; 10 μM extracellularly): 80% | AQP-4 effect (arrow symbol) (AQP4; [5]): ↓↓

SMILES: COC(=O)c1cc(S(N)(=O)=O)c(Cl)cc1NCc1ccco1 [AQP-0022, Furosemide methyl ester]
AQP-4 effect (in words) (AQP4; 100 μM extracellularly): No significant effect | AQP-4 effect (arrow symbol) (AQP4; [5]): ═ | AQP-1 effect (arrow symbol) (AQP1 [1]; [6]): ↓↓

SMILES: CNS(=O)(=O)c1cc(C(=O)OC)c(NCc2ccco2)cc1Cl [AQP-0023, Furosemide methyl ester monomethyl sulfonamide]
AQP-4 effect: % agonist effect / agonist trend (AQP4; 100 μM given extracellularly): −20% | AQP-4 effect (arrow symbol) (AQP4; [5]): ↑ | AQP-1 effect (arrow symbol) (AQP1 [1]; [6]): ↓↓

SMILES: C=CCNS(=O)(=O)c1cc(C(=O)OC)c(NCc2ccco2)cc1Cl [AQP-0027]
AQP-4 effect: % block / antagonist trend (AQP4; 100 μM, route not stated): −25% | AQP-4 effect (arrow symbol) (AQP4; [5]): (↓)? | AQP-1 effect (in words) (AQP1 [1]): No significant effect | AQP-1 effect (arrow symbol) (AQP1 [1]; [6]): ═

SMILES: NS(=O)(=O)c1cc(C(=O)O)c(NCc2ccco2)cc1NCc1ccco1 [AQP-0033]
AQP-4 effect: % agonist effect (AQP4; 100 μM, route not stated): −25% | AQP-4 effect (arrow symbol) (AQP4; [5]): ↑ | AQP-1 effect (in words) (AQP1 [1]): No significant effect | AQP-1 effect (arrow symbol) (AQP1 [1]; [6]): ═

AQP-4 effect: % block / antagonist trend (AQP4; 100 μM, route not stated): −35% | AQP-4 effect (arrow symbol) (AQP4; [5]): ↓
SMILES: CCCCNc1c(Oc2ccccc2)cc(S(N)(=O)=O)cc1C(=O)O [Bumetanide AQP-0000]

SMILES: [Cl][Hg][Cl] [HgCl2]
time to oocyte bursting (AQP4-expressing oocytes): no effect

AQP-4 effect: % block (AQP4; at 100 μM): −35% block at 100 μM
SMILES: CCCCNc1c(Oc2ccccc2)cc(S(N)(=O)=O)cc1C(=O)O [drawing 94]

SMILES: CCCCNc1cc(C(=O)N2CCOCC2)cc(S(N)(=O)=O)c1Oc1ccccc1 [drawing 100]
AQP-4 effect: % activation (AQP4; at 10 μM): 70% Activation at 10 μM

AQP-4 effect: % activation (AQP4; at 10 μM): 110% activation at 10
SMILES: CCCCNc1cc(C(=O)NCCN2CCN(C)CC2)cc(S(N)(=O)=O)c1Oc1ccccc1 [drawing 101]

AQP-4 effect: % activation (AQP4; at 10 μM): 60% activation at 10 μM
SMILES: CCCCNc1cc(C(=O)NCCN2CCS(=O)(=O)CC2)cc(S(N)(=O)=O)c1Oc1ccccc1 [drawing 103]

SMILES: CCCCNc1cc(C(=O)Nc2ccncc2)cc(S(N)(=O)=O)c1Oc1ccccc1 [drawing 107]
AQP-4 effect: % block (AQP4; at 10 μM): 80% | toxicity observed in AQP-4 test (AQP4; at 10 μM): some toxicity observed

SMILES: COC(=O)c1cc(S(N)(=O)=O)c(Cl)cc1NCc1ccco1 [drawing 114]
AQP-4 effect (arrow symbol) (AQP4; arrow symbols, key not given): ═ | AQP-1 effect (arrow symbol) (AQP1 [1]; arrow symbols, key not given): ↓↓

SMILES: CNS(=O)(=O)c1cc(C(=O)OC)c(NCc2ccco2)cc1Cl [drawing 115]
AQP-4 effect (arrow symbol) (AQP4; arrow symbols, key not given): ↑ | AQP-4 effect (in words) (AQP4; at 100 μM): Significant Agonist Effect | AQP-1 effect (arrow symbol) (AQP1 [1]; arrow symbols, key not given): ↓↓

AQP-4 effect (arrow symbol) (AQP4; arrow symbols, key not given): ? ↑ | AQP-1 effect (arrow symbol) (AQP1 [1]; arrow symbols, key not given): ═
SMILES: NS(=O)(=O)c1cc(C(=O)O)c(NCc2ccco2)cc1Cl [drawing 117]

SMILES: C=CCNS(=O)(=O)c1cc(C(=O)OC)c(NCc2ccco2)cc1Cl [drawing 119]
AQP-4 effect (arrow symbol) (AQP4; arrow symbols, key not given): (↑)? | AQP-4 effect (in words) (AQP4; at 100 μM): No significant Antagonist Effect | AQP-1 effect (arrow symbol) (AQP1 [1]; arrow symbols, key not given): ═

AQP-4 effect: % block (AQP4; 15 μM given intracellularly): 75% | AQP-4 effect (in words) (AQP4; 100 μM extracellularly): Modest effect | block of swelling rate in AQP4-expressing oocytes (AQP4; extracellular application): less effective then bumetanide | block of swelling in AQP4-expressing oocytes (AQP4; internal injection into the oocyte (intracellular)): improved block at lower concentrations | AQP-4 effect (arrow symbol) (AQP4; [5]): ↓↓ | AQP-1 effect (arrow symbol) (AQP1 [1]; [6]): ═
SMILES: NS(=O)(=O)c1cc(C(=O)O)c(NCc2ccco2)cc1Cl [furosemide, Furosemide, reference compound]

SMILES: [Pb] [lead]
increase in water permeability (Pf) [2]: 40%

SMILES: CC[N+](CC)(CC)CC [tetraethylammonium (TEA), tetraethylammonium]
water flux through AQP1 channels (AQP1 [3]): blocks water flux

block of swelling in AQP4-expressing oocytes (AQP4; concentrations up to 1 mM): no blocking effect
SMILES: Cc1cccc(Nc2ccncc2S(=O)(=O)NC(=O)NC(C)C)c1 [torsemide, reference compound]
IC50 [4]: 300 nM
